Data reported in patent US20250352520A1, “USE OF DEXPRAMIPEXOLE FOR THE TREATMENT OF EOSINOPHILIC COPD” (Areteia Therapeutics, Inc., priority 2024, published 2025).

Conditions: Week 12; <50% AEC reduction at Week 16

## CCCN[C@@H]1CCc2nc(N)sc2C1 [Dexpramipexole, (6R)-2-amino-4,5,6,7-tetrahydro-6-(propylamino)benzothiazole]
  Pre-BD FEF25-75 % change from baseline, Max: 47%
  Pre-BD FEF25-75 % change from baseline, Mean ± SD: 23.9 ± 28.49%
  Pre-BD FEF25-75 % change from baseline, Median: 30.3%
  Pre-BD FEF25-75 % change from baseline, Min: −12%
  Pre-BD FEF25-75 % change from baseline, Q1: 1%
  Pre-BD FEF25-75 % change from baseline, Q3: 47%
  Pre-BD FEF25-75 Observed, Max: 2050 mL/s
  Pre-BD FEF25-75 Observed, Mean ± SD: 857.5 ± 805.29 mL/s
  Pre-BD FEF25-75 Observed, Median: 515.0 mL/s
  Pre-BD FEF25-75 Observed, Min: 350 mL/s
  Pre-BD FEF25-75 Observed, Q1: 370 mL/s
  Pre-BD FEF25-75 Observed, Q3: 1345 mL/s
  Pre-BD FEF25-75 change from baseline, Max: 660 mL/s
  Pre-BD FEF25-75 change from baseline, Mean ± SD: 182.5 ± 329.18 mL/s
  Pre-BD FEF25-75 change from baseline, Median: 80.0 mL/s
  Pre-BD FEF25-75 change from baseline, Min: -90 mL/s
  Pre-BD FEF25-75 change from baseline, Q1: -20 mL/s
  Pre-BD FEF25-75 change from baseline, Q3: 385 mL/s
  Pre-BD FEV1 % change from baseline, Max: 41%
  Pre-BD FEV1 % change from baseline, Mean ± SD: 10.1 ± 21.78%
  Pre-BD FEV1 % change from baseline, Median: 4.2%
  Pre-BD FEV1 % change from baseline, Min: −9%
  Pre-BD FEV1 % change from baseline, Q1: −3%
  Pre-BD FEV1 % change from baseline, Q3: 23%
  Pre-BD FEV1 Observed, Max: 2940 mL
  Pre-BD FEV1 Observed, Mean ± SD: 1672.5 ± 886.84 mL
  Pre-BD FEV1 Observed, Median: 1440.0 mL
  Pre-BD FEV1 Observed, Min: 870 mL
  Pre-BD FEV1 Observed, Q1: 1145 mL
  Pre-BD FEV1 Observed, Q3: 2200 mL
  Pre-BD FEV1 change from baseline, Max: 860 mL
  Pre-BD FEV1 change from baseline, Mean ± SD: 200.0 ± 449.52 mL
  Pre-BD FEV1 change from baseline, Median: 45.0 mL
  Pre-BD FEV1 change from baseline, Min: -150 mL
  Pre-BD FEV1 change from baseline, Q1: -55 mL
  Pre-BD FEV1 change from baseline, Q3: 455 mL
  Pre-BD FVC % change from baseline, Max: 10%
  Pre-BD FVC % change from baseline, Mean ± SD: −3.1 ± 11.75%
  Pre-BD FVC % change from baseline, Median: −2.9%
  Pre-BD FVC % change from baseline, Min: −17%
  Pre-BD FVC % change from baseline, Q1: −12%
  Pre-BD FVC % change from baseline, Q3: 6%
  Pre-BD FVC Observed, Max: 3990 mL
  Pre-BD FVC Observed, Mean ± SD: 2942.5 ± 825.44 mL
  Pre-BD FVC Observed, Median: 2830.0 mL
  Pre-BD FVC Observed, Min: 2120 mL
  Pre-BD FVC Observed, Q1: 2300 mL
  Pre-BD FVC Observed, Q3: 3585 mL
  Pre-BD FVC change from baseline, Max: 370 mL
  Pre-BD FVC change from baseline, Mean ± SD: -52.5 ± 345.68 mL
  Pre-BD FVC change from baseline, Median: -75.0 mL
  Pre-BD FVC change from baseline, Min: -430 mL
  Pre-BD FVC change from baseline, Q1: -320 mL
  Pre-BD FVC change from baseline, Q3: 215 mL
  Pre-BD Peak Flow % change from baseline, Max: 478%
  Pre-BD Peak Flow % change from baseline, Mean ± SD: 121.7 ± 237.65%
  Pre-BD Peak Flow % change from baseline, Median: 12.2%
  Pre-BD Peak Flow % change from baseline, Min: −15%
  Pre-BD Peak Flow % change from baseline, Q1: −5%
  Pre-BD Peak Flow % change from baseline, Q3: 249%
  Pre-BD Peak Flow Observed, Max: 246 L/min
  Pre-BD Peak Flow Observed, Mean ± SD: 204.8 ± 42.39 L/min
  Pre-BD Peak Flow Observed, Median: 210.5 L/min
  Pre-BD Peak Flow Observed, Min: 152 L/min
  Pre-BD Peak Flow Observed, Q1: 171 L/min
  Pre-BD Peak Flow Observed, Q3: 239 L/min
  Pre-BD Peak Flow change from baseline, Max: 191 L/min
  Pre-BD Peak Flow change from baseline, Mean ± SD: 48.3 ± 98.44 L/min
  Pre-BD Peak Flow change from baseline, Median: 18.0 L/min
  Pre-BD Peak Flow change from baseline, Min: -34 L/min
  Pre-BD Peak Flow change from baseline, Q1: -12 L/min
  Pre-BD Peak Flow change from baseline, Q3: 108 L/min
